In BindingDB's records for patent US9328118 (Astellas Pharma Inc, 2016):

Target: Cathepsin S (Homo sapiens, UniProt P25774)
Experiment: Inhibition Assay
Description: 5 μL of a human cathepsin S enzyme (R&D1183-CY-010) was added to a 96-well plate so as to be 20 ng/well.

Chain of Cathepsin S (P25774 whole entry): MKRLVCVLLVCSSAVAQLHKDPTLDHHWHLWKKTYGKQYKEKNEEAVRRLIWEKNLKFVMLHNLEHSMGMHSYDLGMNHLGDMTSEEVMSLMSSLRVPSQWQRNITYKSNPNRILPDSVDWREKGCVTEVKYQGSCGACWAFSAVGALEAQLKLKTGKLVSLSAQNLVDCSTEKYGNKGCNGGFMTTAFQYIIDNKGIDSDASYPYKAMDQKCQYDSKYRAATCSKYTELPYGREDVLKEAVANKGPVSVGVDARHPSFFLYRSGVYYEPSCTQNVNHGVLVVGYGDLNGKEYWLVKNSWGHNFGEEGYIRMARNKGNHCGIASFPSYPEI

IC50: 1.6 nM
Structure (SMILES): CN(C)C(=O)CN1CCC(CCOc2ccc(-c3nc(C#N)nc4c3ncn4C)cc2C(F)(F)F)CC1 [US9328118, 72]
